Test system: MCF-7 cells
Assay: MCF-7 cell proliferation assay (BrdU incorporation)
Type: cell-based
Settings: MCF-7 proliferation, 24 hours, in the absence of estradiol or in the presence of 1 nM estradiol
Experimental: MCF-7 cells are a common line of breast cancer cells used to determine in vitro estrogen receptor agonist/antagonist activity (MacGregor and Jordan 1998). The effect of a test compound on the proliferation of MCF-7 cells, as measured by the incorporation of 5-bromo-2′-deoxyuridine (“BrdU”) in a chemiluminescent assay format, can be used to determine the relative agonist/antagonist activity of the test compound. MCF-7 cells (ATCC HTB-22) are mainatined in log-phase culture. The cells are plated and incubated in phenol-free medium to avoid external sources of iS estrogenic stimulus (MacGregor and Jordan 1998). The test compound is added at varying concentrations to determine an IC50, for the compound. […]
This assay determines the estrogen agonist/antagonist activity of a test compound by the effect of the test compound on the proliferation of MCF-7 cells as measured by the incorporation of 5-bromo-2′-deoxyuridine (“BrdU”) in a chemiluminescent assay format. […]
The cells were cultured in the presence of test compounds for 24 hours at 37° C. and under a 5% CO2 atmosphere Cell proliferation was detected by measuring the level of BrdU incorporation into DNA. […] The plates were shaken for ten minutes at room temperature, and the resulting chemiluminescent signals were counted using a TRILUX scintillation counter.

Structure (SMILES) | concentration at which activity was demonstrated
CCc1c(-c2ccc(O)cc2)nn(C2CCC2)c1-c1ccc(O)cc1 [4-[1-cyclobutyl-4-ethyl-5-(4-hydroxyphenyl)pyrazol-3-yl]phenol] | less than one hundred
CCc1c(-c2ccc(O)cc2)nn(-c2ccccc2C(F)(F)F)c1-c1ccc(O)cc1 [4-{4-ethyl-5-(4-hydroxyphenyl)-1-[2-(trifluoromethyl)phenyl]pyrazol-3-yl}phenol] | less than one hundred

Source: patent publication USRE39708E1, “Estrogen receptor modulators” (Chiron Corporation, priority 1998, dated 2007)
